Values joined by “and” are separate entries in the source; they are usually repeats but may differ in a detail not shown here. Equal entries are not always repeated.
How the values were obtained:
[1] = biological target: T1, β-glucosidase from Agrobacterium sp. (Agrobacterium sp., UniProt P12614); assay: Oligomerization of compound V with β-glucosidase; assay type: biochemical
T1 construct: purchased Megazyme
T1 sequence (P12614 1-459): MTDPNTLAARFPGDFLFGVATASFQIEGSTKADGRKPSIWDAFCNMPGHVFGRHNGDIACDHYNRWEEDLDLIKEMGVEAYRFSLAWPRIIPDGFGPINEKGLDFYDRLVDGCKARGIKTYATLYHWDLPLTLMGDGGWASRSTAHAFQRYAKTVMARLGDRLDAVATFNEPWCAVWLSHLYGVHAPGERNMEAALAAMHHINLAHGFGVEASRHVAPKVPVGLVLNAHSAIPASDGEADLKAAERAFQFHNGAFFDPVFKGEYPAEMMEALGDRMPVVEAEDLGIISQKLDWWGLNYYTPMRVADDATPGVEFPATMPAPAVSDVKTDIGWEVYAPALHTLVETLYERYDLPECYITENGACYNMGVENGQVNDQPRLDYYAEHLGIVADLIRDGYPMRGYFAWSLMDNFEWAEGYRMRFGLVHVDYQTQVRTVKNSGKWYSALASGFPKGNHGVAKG
Method: The oligomerization of compound V was examined by treatment with the enzyme-glucosidase. The reaction mixture contained 50 μM of compound V and 200 nM of β-glucosidase (250-fold ratio). The reaction mixture was only faintly blue but upon centrifugation after 5 h of incubation, a blue precipitate was obtained. According to the colors of samples (FIG. 13, panel A), the yield of precipitate is low by comparison with our previously reported enzyme-substrate pairs (see Example 1). Multiple additions of enzyme (4×0.20 μM of enzyme stock, every 2 h) and longer incubation times (10 h or 24 h) were also tested but no increase in solution intensity or precipitate was observed. For the samples after 300 min of incubation, the precipitates suspended in H2O were screened by optical microscopy (FIG. 13, panel B) and DLS (FIG. 13, panel C). The size of aggregates is between 100 and 1000 nm as measured by DLS, which is consistent with the images obtained by optical microscopy (˜1 μm).
Quantitation of the indigogenic compounds in the precipitate and supernatant was carried out by absorption spectroscopy and multicomponent analysis (MCA) (M. Taniguchi, et al., Photochem. Photobiol., 2018, 94, 277-289) (FIG. 13, panels D and E). MCA analysis is essential due to the overlaid spectra of indigo and coumarin at 362 nm, the peak wavelength for the coumarin. Spectral deconvolution relied on knowledge of the molar absorption coefficient at 362 nm of coumarin (εcou362=2.0×10^4 M^−1 cm^−1, measured in DMF) and indigo model compound F19 (see Example 1 where F-19 is compound 43) shown in Chart 2 (εind362=0.81×10^4 M^−1 cm^−1, measured in DMSO/H2O, v/v=2/1); and the molar absorption coefficient of F19 at 630 nm (εind630=2.6×10^4 M^−1 cm^−1, measured in DMSO/H2O, v/v=2/1). The residual upon MCA was smaller than any of the components, as required for accurate analysis (Y. Zhang, et al., Phytochem. Anal., 2018, 29, 205-216). In this manner, the precipitate is composed of 51.6 nmol of coumarin and 2.8 nmol of indigoid dye; the supernatant is composed of 11.1 nmol of coumarin and 0.3 nmol of indigoid dye.
Materials. DMF (HPLC grade) was purchased from Alfa Aesar. H2O (molecular biology grade) for buffer preparation was purchased from Millipore Sigma. Compound V (5.6 mg) was dissolved in DMF (26 μL) to prepare 100 mM stock solution. Pi buffer was prepared freshly at 10 mM, pH 7. The enzyme β-glucosidase from Agrobacterium sp. was purchased from MegaZyme and was dissolved in Pi buffer at 10 μM to prepare the stock solution.
To screen the oligomerization procedure of compound V, samples of Pi buffer (1859 μL), DMF (100 μL), […]-glucosidase stock (40 μL) and compound V stock (1 μL) were mixed in a 2-mL Eppendorf tube. The resulting mixed sample (2.0 mL) contains 50 μM of compound V as the substrate and 0.20 μM of β-glucosidase as the enzyme. Three identical samples were prepared for different assays. For a control sample, 40 μL of Pi buffer was added as a replacement for the β-glucosidase stock solution. The tubes were incubated at 37° C. for 5 h, and pictures of the tubes were captured at 0, 15, 30, 60, 120, 180 and 300 min. After 300 min, the tubes were centrifuged at 20,000×g for 10 min to isolate any precipitate from the supernatant. No precipitate formed in the control sample.
Three samples were treated differently for three assays: (1) for sample 1, the precipitate was dissolved in 100 μL of DMF for absorption screening; (2) for sample 2, the precipitate was suspended in 100 μL of H2O for microscopic imaging; and (3) for sample 3, the precipitate was suspended in 1000 μL of H2O for dynamic light scattering (DLS) assay. The supernatant of sample 1 was freeze-dried under high vacuum and afterwards dissolved in 100 μL of DMF for absorption screening. The absorption spectra of the precipitates and supernatants were employed for quantitation of indigo and coumarin. […]

[2] = tested on: β-glucosidase from almonds; assay: Indigogenic reaction with β-glucosidase from almonds; assay type: biochemical; conditions: as E1 but ε measured for 43 (footnote g)
[3] = biological target: T2, β-glucosidase from Agrobacterium (Agrobacterium sp., UniProt P12614); assay: Indigogenic reaction with β-glucosidase from Agrobacterium; assay type: biochemical; conditions: as E4 but ε measured for 43 (footnote g)
T2 construct: purchased Megazyme
T2 sequence (P12614 1-459): T1 sequence (P12614 1-459)
Method: Next, the β-glucosidase from Agrobacterium sp. was investigated as the trigger enzyme for indigoid dye formation. […] The reaction was carried out using the enzyme (200 nM) and indoxyl-glucoside 33 (100 μM) in phosphate buffer (pH 4-9, containing 2% DMF) at 37° C. […] Note that with 200 nM enzyme and 100 μM substrate, complete reaction requires 500 turnovers of each enzyme.
Reactions with β-glucosidase from Agrobacterium. An indoxyl compound in DMF (2 μL, 5 mM) and β-glucosidase from Agrobacterium in 10 mM phosphate buffer [2 μL, 10 μM, pH 7.0, containing 50 mM NaCl and 0.6 M (NH4)2SO4] were mixed with 50 mM phosphate buffer (96 μL, pH 7.0). The reaction mixture was incubated at 37° C. for 2 h and then centrifuged for 3 min. Any precipitate was separated from the supernatant and dissolved in DMF (200 μL). The resulting solution was analyzed by absorption spectroscopy. The experiment was repeated three times.

rat liver homogenate = assay: Indigoid-dye formation in rat liver homogenate; assay type: biochemical; conditions: as E7 but ε measured for 43 (footnote g)
Method: Finally, indigoid-dye formation was carried out in rat liver homogenate (Table 1, rightmost column).
Reactions in rat liver homogenate. An indoxyl compound in DMF (5 μL, 20 mM) was mixed with rat liver homogenate (95 μL). The reaction mixture was incubated at 37° C. for 24 h. After allowing to cool to room temperature, the reaction mixture was diluted with DMF (900 μL). The mixture was heated at 70° C. for 2 min and then centrifuged for 2 min. The supernatant was separated from any precipitate. This extraction procedure was repeated two or three times with DMF (100-500 μL). The combined supernatant (1500-1800 μL) was analyzed by absorption spectroscopy.

[4] = biological target: T3, β-glucosidase from Agrobacterium plus rat liver homogenate (Agrobacterium sp., UniProt P12614); assay: Reaction of 33 with β-glucosidase from Agrobacterium in rat liver homogenate; assay type: biochemical; conditions: 33 100 μM, enzyme 200 nM, rat liver homogenate with 2% DMF, 37° C., 4 h; ε measured for 43 (footnotes g,h)
T3 construct: purchased Megazyme
T3 sequence (P12614 1-459): T1 sequence (P12614 1-459)
Method: Reaction of 33 with β-glucosidase from Agrobacterium in rat liver homogenate. A DMF solution of 33 (2 μL, 5 mM) and β-glucosidase from Agrobacterium in 10 mM phosphate buffer [2 μL, 10 μM, pH 7.0, containing 50 mM NaCl and 0.6 M (NH4)2SO4] were mixed with rat liver homogenate (96 μL). The reaction mixture was incubated at 37° C. for 4 h and then centrifuged for 3 min. Any precipitate was separated from the supernatant and then suspended in DMF (200 μL). The suspension was centrifuged for 3 min. The supernatant was analyzed by absorption spectroscopy.

[5] = Solubility in aqueous buffer; assay type: physicochemical; conditions: 100 mM phosphate buffer (pH 7.4, containing 100 mM NaCl), room temperature
Description: Water solubility of the indoxyl glucoside is important for biological applications. […] Therefore, this compound is not suitable for bioconjugation. The synthesis of 34 relies on successive substitution of the dichloroanilinotriazine unit (derived from N,N-bis(2-methoxyethyl)aniline^31 and cyanuric chloride) with indoxyl-glucoside-PEG-OH and BCN-PEG-NH2 building blocks.
To improve the water solubility of the indoxyl species, a sulfobetaine unit^32,33 was incorporated as a water-solubilizing group. Sulfobetaines are stable zwitterions over a wide range of pH. Synthesis of an indoxyl bearing a sulfobetaine unit is illustrated in Scheme 6. Boc-piperazine (35) was treated with 1,3-propane sultone to afford 36 in 63% yield. Quaternization of the tertiary nitrogen atom in 36 with 3-bromopropanol gave Boc-protected sulfobetaine 37 in 69% yield. The Boc group was cleaved with trifluoroacetic acid (TFA) to afford piperazine-TFA salt 38 in 97% yield. The N-acetyl group of 32 was selectively deprotected with NaHCO3/MeOH in 84% yield. The product 39, piperazine-TFA salt 38, and BCN-amine 14 were assembled at a triazine ring via one-flask, successive substitution of cyanuric chloride to afford 40 in 51% yield. Cleavage of the acetyl groups of sulfobetaine 40 provided 41 in 98% yield.

[6] = 50 μM compound V (100 nmol), 200 nM β-glucosidase, 37° C., 300 min, MCA
[7] = 50 μM compound V (100 nmol), 200 nM β-glucosidase, 37° C., 300 min, absorption spectroscopy with MCA

Compound: Cc1cc(=O)oc2cc(NCCNc3nc(NCCOCCOCCOCCOCCOCCN=[N+]=[N-])nc(OCCC[N+]4(CCCS(=O)(=O)[O-])CCN(c5nc(OCCOCCOCCOc6c(Br)cc7[nH]cc(O[C@@H]8O[C@H](CO)[C@@H](O)[C@H](O)[C@H]8O)c7c6Br)nc(OCCOCCOCCOc6c(Br)cc7[nH]cc(O[C@@H]8O[C@H](CO)[C@@H](O)[C@H](O)[C@H]8O)c7c6Br)n5)CC4)n3)ccc12 [Compound V, 2,4-Bis[1-(3-(β-D-glucopyranosyloxy)-4,6-dibromo-1H-indol-5-yl)-1,4,7,10-tetraoxadec-10-yl]-6-[4-(3-(2-(1-azido-3,6,9,12,15-pentaoxoheptadecylamino)-4-[2-((4-methyl-2H-chromen-2-one-7-yl)amino)ethylamino]-1,3,5-triazin-6-yloxy)propyl)-4-(3-sulfopropyl)piperazin-1-yl]-1,3,5-triazine]
- total amount of coumarin calculated by MCA ([1]; 100 nmol compound V added): 62.7 nmol
- coumarin in the precipitate [1, 6]: 51.6 nmol
- coumarin in the supernatant [1, 6]: 11.1 nmol
- indigoid dye in the precipitate [1, 7]: 2.8 nmol
- indigoid dye in the supernatant [1, 7]: 0.3 nmol
- total quantity of indigoid dye ([1]; precipitate plus supernatant, 100 nmol compound V added): 3.1 nmol
- yield of indigoid dye ([1]; total indigoid dye, 100 nmol compound V added): 3.1%

Compound: OCCOCCOCCOc1c(Br)cc2[nH]cc(O[C@@H]3O[C@H](CO)[C@@H](O)[C@H](O)[C@H]3O)c2c1Br [compound 33, 4,6-Dibromo-5-[1-hydroxy-3,6,9-trioxanon-9-yl]-1H-indol-3-yl β-D-glucopyranoside]
- Yield (%) of indigoid dye, β-glucosidase from almonds [2]: 52% and 52^g %
- Yield (%) of indigoid dye, β-glucosidase from Agrobacterium [3]: 99% and 99 ± 5^g %
- Yield (%) of indigoid dye, rat liver homogenate (rat liver homogenate): < 5%
- Yield (%) of indigoid dye, β-glucosidase from Agrobacterium plus rat liver homogenate [4]: 81% and 81 ± 5%

Compound: O=C(NCCOCCOCCNc1nc(OCCOCCOCCOc2c(Br)cc3[nH]cc(OC4O[C@H](CO)[C@@H](O)[C@H](O)[C@H]4O)c3c2Br)nc(N2CC[N+](CCCO)(CCCS(=O)(=O)[O-])CC2)n1)OC[C@@H]1[C@@H]2CCC#CCC[C@@H]21 (stereo partly shown) [compound 41]
- Yield (%) of indigoid dye, β-glucosidase from Agrobacterium [3]: 106% and 106 ± 4^g %
- solubility [5]: > 400 µM

Source: patent US12502440B2, “Cross-linking compounds and methods of use thereof” (North Carolina State University, priority 2019, dated 2025)
